{"source": "patent US8710246B2", "about": "“Substituted thiophene pentamers” (Biochromix Newco AB, priority 2008, dated 2014)", "key": {"Aβ peptide 1-42": {"target": "T1, Aβ peptide 1-42 (Homo sapiens, UniProt P05067)", "T1 construct": "Aβ peptide 1-42 was dissolved in hexafluoroisopropanol", "T1 sequence (P05067 672-713 limits assumed)": "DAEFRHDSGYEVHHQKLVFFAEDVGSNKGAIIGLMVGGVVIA", "test": "In vitro fibrillation of Aβ peptide 1-42 followed by TEM", "assay_type": "biochemical", "details": "for fibrillation morphology by TEM: 100 μM compound, 20 μM Aβ 1-42, 37° C.", "procedure": "Aβ peptide 1-42 was dissolved in hexafluoroisopropanol to a concentration of 1 mg/mL and further diluted to 20 μM in Tris-HCl 5 mM, 75 mM NaCl. The inventive compounds F and G were added in concentrations from 10 to 100 μM and the samples, including references without the inventive compounds, were incubated at 37° C. to initiate fibrillation. After Oh, 20 h and 66 h aliquots were withdrawn, deposited on formvar-carbon coated TEM grids and negatively stained using uranylacetate. A Phillips CM200 run at 200 kV was used to study the progress of fibrillation in the different samples. […] (at Oh). […] These aggregates were covering most of the TEM grid and no smaller fibril or oligomer like structures could be seen. After 66 h of incubation no major change in morphology compared to the 20 h samples could be seen, sheets with separate visible fibrils were found at high density on the grid, of a typical morphology illustrated in FIG. 3."}, "hAPPSL transgenic mice": {"test_system": "hAPPSL transgenic mice", "test": "14 days treatment, general observations, tolerance to compound (toxicity)", "assay_type": "in vivo", "details": "for animals that died premature: ip 14 days", "procedure": "Vehicle: Phosphate Buffered Saline (PBS; 6.7 mM PO4, 155 mM NaCl, pH=7.3-7.5) (BioWhittaker PBS from Lonza).\nT:I: p-FTAA, Mw=617 g/mol, diluted in vehicle from stock solution in deionized water (10 mg/ml).\nTg hAPPSL: Transgenic hAPPSL mice over-expressing hAPP(751) under the control of the murine Thy-1 promoter with a C57BL/6xDBA background.\n(§1) Starting at 4 months of age, female hAPPSL mice were treated with vehicle only or p-FTAA in 3 dosages for 14 days. 40 hAPP Tg mice plus 4 reserves allocated to 4 different treatment groups were treated with either vehicle only (control) or with p-FTAA in dosages of 0.1 mg/kg/day, 1 mg/kg/day, or 10 mg/kg/day. Vehicle and T.I.s were administered twice daily intra peritoneal (ip) for 14 days.\nIn total 44 animals allocated to 4 treatment groups were included in the study. 4 animals died premature due to unknown reason: 1 animal each of the 1 mg/kg and 10 mg/kg T.I. groups and 2 animals from the control group."}, "[1]": {"test": "14 days treatment, biodistribution by HPLC-MS/MS", "assay_type": "in vivo, mice", "procedure": "as §1\nThe biodistribution of p-FTAA in the mice was assessed by determining the parent compound in the right brain hemisphere (without cerebellum), liver, kidney, and plasma of the treated animals. p-FTAA was determined in all the matrices by different bioanalytical methods involving HPLC-MS/MS. Each method was characterized in terms of specificity, linearity, accuracy and precision in order to give reliable results.\nTissue Sampling: After the last treatment, animals were sacrificed. Each treatment group was divided in 3 sampling points resulting in 3-4 animals per sampling point per group (time points below refer to the time point of CSF sampling):\n1) Immediately before last dosing on day 14 (predose)\n2) 0.5 hours after last dosing on day 14\n3) 3 hours after last dosing on day 14\nFrom each animal, CSF, blood, brains, liver, and kidney were collected. Therefore, mice were sedated by standard inhalation anesthesia (Isofluran, Baxter)"}, "amyloid plaques": {"test_system": "amyloid plaques", "test": "30 days treatment, plaque load by 6E10 IHC and ThioflavinS staining", "assay_type": "in vivo, mice", "details": "for hippocampal plaque load compared to vehicle: t-test", "procedure": "as §1, with “at 8” for “at 4”, “for 30” for “for 14”, “days. The Test Item (T.I.) p-FTAA was administered in 3 dosages in Vehicle. 48” for “days. 40”, “mg/kg/day. As an additional control, 12 nTg littermates of the hAPPSL mice (plus 1 reserve) were treated with vehicle only.” for “mg/kg/day.”, “peritoneal (i.p.)” for “peritoneal (ip)”\nFollowing blood sampling, mice were transcardially perfused with physiological (0.9%) saline. The brains were removed from the skull and the cerebellum was cut off, immediately frozen on dry ice and stored at −80° C. The remaining brain was hemisected and the left hemisphere was weighed, immediately frozen on dry ice and stored at −80° C. until A13 analysis. The right hemisphere was fixed with paraformaldehyde as described in section 4.3.1.\nThe right hemispheres of all Tg mice were fixed by immersion in freshly prepared 4% paraformaldehyde/PBS (pH 7.4) for one hour at room temperature. Thereafter brains were transferred to a 15% sucrose PBS solution for 24 hours to ensure cryoprotection. On the next day, brains were frozen in isopentane and stored at −80° C. until used for histological analysis.\nFrom 6 animals per Tg group, 15 cryo-sections per layer (altogether 5 layers), each 10 μm thick (Leica CM 3050S) were sagittally cut. Brain levels were chosen according to the morphology atlas “The Mouse Brain” from Paxinos and Franklin (2nd edition). The cutting of the five levels started with a random slice corresponding to FIG. 105 (total appearance of the dentate gyrus), then sampling was continued uniformly and systematically, always retaining 15 slices per level in series and discarding 100 μm in between the levels.\nPlaque load was quantified by staining with 6E10 IHC directed against AA1-17 of the human amyloid peptide and ThioflavinS staining against beta-sheet structures in a double incubation. Tissues of all investigated animals were handled uniformly.\nDescriptive statistical analysis was performed on all evaluated parameters. Data were represented as mean±standard error of mean (SEM). Outliers were detected by Grubbs' test and were excluded from statistical analyses.\nValues of the five single measurements (one from each cut level) per animal were integrated to one value per animal (individual mean). Group means were calculated with these integrated values. After Kolmogorov Smirnov normality distribution tests differences were calculated by a parametric ANOVA followed by a Newman Keuls multiple comparison post-hoc test or by a non-parametric Kruskal Wallis ANOVA followed by a Dunn's Multiple comparison test, if Gaussian distribution was missing."}}, "note": "“Also recorded” adds a separate entry of the source.", "data": [{"smiles": "O=C(O)Cc1cc(-c2ccc(C(=O)O)s2)sc1-c1ccc(-c2sc(-c3ccc(C(=O)O)s3)cc2CC(=O)O)s1", "note": "[Compound F]", "values": [{"measurement": "fibrillation morphology by TEM", "setting": "Aβ peptide 1-42; 20 h", "result": "no dense aggregates resembling those in the reference sample"}, {"measurement": "fibrillation morphology by TEM", "setting": "Aβ peptide 1-42; 66 h", "result": "no separate fibrils could be found; also recorded: dense aggregates where no fibrils can be seen"}, {"measurement": "effect on the fibrillation of Aβ peptide 1-42", "setting": "Aβ peptide 1-42; overall conclusion, 20 h and 66 h", "result": "major effect"}, {"measurement": "animals that died premature", "setting": "hAPPSL transgenic mice; 1 mg/kg group", "result": 1, "unit": "animal"}, {"measurement": "animals that died premature", "setting": "hAPPSL transgenic mice; 10 mg/kg group", "result": 1, "unit": "animal"}, {"measurement": "attribution of premature deaths to the compound", "setting": "hAPPSL transgenic mice; 0.1, 1, 10 mg/kg/day ip twice daily for 14 days, 4 months old female hAPPSL mice", "result": "cannot be attributed to p-FTAA"}, {"measurement": "systemic exposure", "setting": "[1]; 0.1, 1, 10 mg/kg/day ip for 14 days, plasma", "result": "exposed systemically to p-FTAA at all dose levels"}, {"measurement": "crossing of the blood-brain barrier (brain levels)", "setting": "[1]; after ip administration, 14 days", "result": "crossed the blood-brain barrier"}, {"measurement": "elimination route suggested by tissue levels", "setting": "[1]; ip, 14 days", "result": "urinary excretion is the main elimination route"}, {"measurement": "exposure in the liver and in the kidney", "setting": "[1]; ip, 14 days", "result": "Significant exposure"}, {"measurement": "levels in kidney compared to liver", "setting": "[1]; ip, 14 days", "result": "higher in the kidney compared to the liver"}, {"measurement": "decrease in plaque area", "setting": "amyloid plaques; 1 mg/kg, hippocampus", "result": 40, "unit": "%"}, {"measurement": "hippocampal plaque load compared to vehicle", "setting": "amyloid plaques; 1 mg/kg/day, ThioflavinS, listed as p-FTAA", "result": "Statistical significance; also recorded: significantly lower plaque load"}, {"measurement": "hippocampal plaque load compared to vehicle", "setting": "amyloid plaques; 10 mg/kg/day, ThioflavinS, listed as p-FTAA", "result": "Statistical significance; also recorded: significantly lower plaque load"}, {"measurement": "plaque load in the cortex", "setting": "amyloid plaques; 0.1, 1, 10 mg/kg/day, ThioflavinS, listed as p-FTAA", "result": "without significant changes; also recorded: comparable among groups"}, {"measurement": "reduction of diffuse 6E10 IR surrounding the plaque-cores, dose of strongest effect", "setting": "amyloid plaques; 6E10 IHC", "result": "strongest for the 10 mg/kg p-FTAA treatment"}, {"measurement": "effect on beta-sheet cores, dose of strongest effect", "setting": "amyloid plaques; ThioflavinS", "result": "strongest effect on beta-sheet cores was observed for the 1 mg/kg p-FTAA treatment"}, {"measurement": "plaque load, overall effect of treatment", "setting": "amyloid plaques; mainly hippocampus, 6E10 IHC and ThioflavinS", "result": "reduction of plaque load"}]}]}
